The NIST ThermoML archive (doi:10.1007/s10765-006-0114-6)
Numbers after ± are expanded uncertainties.

Conditions: Fluid (supercritical or subcritical phases), vibrating plate method

[Ar] [argon]
Conditions	mass density [kg/m3]	viscosity [mPa·s]
323.16 K, 7006 kPa	107.17 ± 1	0.02744 ± 0.00086
323.16 K, 13877 kPa	213.45 ± 1.2	0.02979 ± 0.00088
323.16 K, 20899 kPa	316.3 ± 1.3	0.03257 ± 0.00094
323.16 K, 27679 kPa	408.2 ± 1.4	0.0352 ± 0.001
323.16 K, 34459 kPa	489.8 ± 1.6	0.0382 ± 0.0011
323.16 K, 41249 kPa	561.2 ± 1.8	0.0415 ± 0.0012
323.16 K, 48119 kPa	624.2 ± 1.9	0.0448 ± 0.0013
323.16 K, 54885 kPa	678.5 ± 1.9	0.0481 ± 0.0014
323.16 K, 61690 kPa	726.2 ± 2.1	0.0512 ± 0.0015
323.16 K, 68312 kPa	767.5 ± 2.2	0.0542 ± 0.0016
348.15 K, 6978 kPa	97.69 ± 0.93	0.02904 ± 0.00091
348.15 K, 17496 kPa	241.15 ± 1.1	0.03308 ± 0.00097
348.15 K, 27653 kPa	368.7 ± 1.4	0.0358 ± 0.001
348.15 K, 34469 kPa	444.9 ± 1.5	0.0381 ± 0.0011
348.15 K, 41288 kPa	513.1 ± 1.6	0.0407 ± 0.0012
348.15 K, 48154 kPa	574.3 ± 1.8	0.0434 ± 0.0012
348.15 K, 54879 kPa	627.8 ± 1.9	0.0463 ± 0.0013
348.15 K, 61690 kPa	676.3 ± 1.9	0.049 ± 0.0014
348.15 K, 68529 kPa	719.8 ± 2	0.051 ± 0.0015
398.11 K, 7360 kPa	88.47 ± 0.8	0.0292 ± 0.00091
398.11 K, 13876 kPa	165.12 ± 0.87	0.03138 ± 0.00092
398.11 K, 27719 kPa	316.2 ± 1.1	0.0362 ± 0.001
398.11 K, 34448 kPa	382.2 ± 1.3	0.0386 ± 0.0011
398.11 K, 41294 kPa	443.6 ± 1.4	0.0417 ± 0.0012
398.11 K, 48140 kPa	499.6 ± 1.6	0.0441 ± 0.0013
398.11 K, 54949 kPa	550.4 ± 1.6	0.0466 ± 0.0013
398.11 K, 61785 kPa	596.9 ± 1.8	0.0491 ± 0.0014
423.11 K, 7008 kPa	79.27 ± 0.74	0.03113 ± 0.001
423.11 K, 7272 kPa	82.13 ± 0.75	0.02996 ± 0.00096
423.11 K, 14124 kPa	157.84 ± 0.84	0.03214 ± 0.001
423.11 K, 14381 kPa	160.69 ± 0.85	0.03398 ± 0.001
423.11 K, 21056 kPa	231.04 ± 0.95	0.0342 ± 0.001
423.11 K, 21065 kPa	231.06 ± 0.95	0.0361 ± 0.001
423.11 K, 27779 kPa	297.59 ± 1.1	0.0381 ± 0.0011
423.11 K, 27786 kPa	297.92 ± 1.1	0.0359 ± 0.001
423.11 K, 34529 kPa	359.8 ± 1.4	0.0403 ± 0.0021
423.11 K, 34605 kPa	361 ± 1.4	0.0376 ± 0.0021
423.11 K, 41249 kPa	417.7 ± 1.3	0.0398 ± 0.0011
423.11 K, 48189 kPa	472.3 ± 1.5	0.0418 ± 0.0012
423.11 K, 48197 kPa	472.3 ± 1.5	0.0421 ± 0.0012
423.11 K, 55018 kPa	521.5 ± 1.6	0.0444 ± 0.0013
423.11 K, 61834 kPa	566.5 ± 1.6	0.0467 ± 0.0014
423.11 K, 68620 kPa	608 ± 1.7	0.0493 ± 0.0014
